Columns and labels:
[1] = test system: Plasmodium falciparum; assay: NOVARTIS: Inhibition of Plasmodium falciparum W2 (drug-resistant) proliferation in erythrocyte-based infection assay; assay type: functional, organism-based; details: Plasmodium falciparum, W2; read-out: EC50
[2] = NOVARTIS: Cytotoxicity against human hepatocellular carcinoma cell line (Huh7); assay type: toxicity, cell-based, Huh-7; details: Huh7 cells (hepatocellular carcinoma cell line)
[3] = test system: Plasmodium falciparum; assay: NOVARTIS: Inhibition of Plasmodium falciparum 3D7 (drug-susceptible) proliferation in erythrocyte-based infection assay; assay type: functional, organism-based; details: Plasmodium falciparum, 3D7

| SMILES | EC50 [1] [nM] | CC50 [2] [nM] | EC50 [3] [nM] |
| --- | --- | --- | --- |
| O[C@@H](c1cc(C(F)(F)F)nc2c(C(F)(F)F)cccc12)[C@H]1CCCCN1 | 2.37 | > 6250 | 51.7 |
| O=C(c1ccco1)N1CCN(c2ccc([N+](=O)[O-])c(NC3CC3)c2)CC1 | 44.5 | > 100000 | 100 |
| CCCCCc1cc(O)c2c3c(c(=O)oc2c1)CN(C)CC3 | 37.6 | > 96800 | 49.4 |
| CCOC(=O)C1=C(C)NC2=C(C(=O)C(C(=O)OC)C(C)C2)C1c1cc(Br)c(OCC)c(OC)c1 (stereo unspecified) | 39.6 | > 100000 | 255 |
| COC(=O)C1=C(C)NC2=C(C(=O)CC(c3ccc(OC)c(OC)c3)C2)C1c1ccccc1C (stereo unspecified) | 31.7 | > 100000 | 125 |
| O=C(N=CNNc1ccccc1F)c1cc(OCC(F)(F)F)ccc1OCC(F)(F)F | < 3.13 | > 10000 | > 532 |
| CCC(C)OC(=O)C1=C(C)NC2=C(C(=O)CC(c3ccc(OC)cc3)C2)C1c1ccc(O)cc1 (stereo unspecified) | 31.2 | > 100000 | 500 |
| O=C(O)C(Cc1ccc([N+](=O)[O-])cc1)NS(=O)(=O)c1ccc(OC(F)(F)F)cc1 (stereo unspecified) | 3.29 | > 10000 | 580 |
| O=C(Nc1ccc2nc3n(c(=O)c2c1)CCCCC3)C(=O)N1CCN(c2ccccc2)CC1 | 30.8 | > 100000 | 133 |
| COc1ccc(C2CC(=O)C3=C(C2)NC(C)=C(C(=O)OC(C)C)C3c2cccc(C)c2)cc1OC (stereo unspecified) | 19.1 | 54800 | 82.1 |
| COc1ccc(C2CC(=O)C3=C(C2)NC(C)=C(C(=O)OC2CCCC2)C3c2ccc(Cl)cc2Cl)cc1 (stereo unspecified) | 34.7 | > 100000 | 126 |
| COc1ccc(C2CC(=O)C3=C(C2)NC(C)=C(C(=O)OC2CCCC2)C3c2ccccc2)cc1 (stereo unspecified) | 33.5 | > 100000 | 124 |
| COCCOC(=O)C1=C(C)NC2=C(C(=O)CC(c3ccc(OC)cc3)C2)C1c1ccc(Cl)cc1 (stereo unspecified) | 33.2 | > 100000 | 167 |
| O=C(NCCCCCCNC(=O)Nc1ccc(C2=NCCCN2)cc1)Nc1ccc(C2=NCCCN2)cc1 | < 3.28 | > 10000 | 108 |
| COCCOC(=O)C1=C(C)NC2=C(C(=O)CC(c3ccc(OC)c(OC)c3)C2)C1c1ccccc1C (stereo unspecified) | 32.3 | > 100000 | 110 |
| Cc1cc(C)nc(/N=C(\N)Nc2ccccc2O)n1 | 36.2 | > 100000 | 379 |
| Oc1ccc(-c2ccc(F)cc2)cc1CNC1CCCCC1 | 6.28 | 17400 | 40.2 |
| CCOC(=O)c1ccc2c(c1)[C@@H]1C=CC[C@@H]1[C@H](c1cccc(OC)c1OC)N2 | 31.8 | > 100000 | 471 |
| CC1=C(C(=O)OC(C)C)C(c2ccccc2F)C2=C(CC(c3ccc(Cl)cc3)CC2=O)N1 (stereo unspecified) | 35.1 | > 100000 | 109 |
| CC(=O)NC(c1ccc(N(C)C)cc1)c1cc(Cl)c2cccnc2c1O (stereo unspecified) | 39.3 | > 100000 | 651 |
| COC(=O)C1=C(C)NC(=Cc2cc(C)n(-c3ccccc3F)c2C)C1=O | 38.3 | > 100000 | 20 |
| COCCOC(=O)C1=C(C)NC2=C(C(=O)CC(c3ccc(OC)c(OC)c3)C2)C1c1ccc(F)cc1 (stereo unspecified) | 17.7 | 46800 | 38.2 |
| CCOC(=O)C1=C(C)NC2=C(C(=O)C(C(=O)OC)C(C)C2)C1c1cc(Br)c(OC)c(OC)c1 (stereo unspecified) | 40.4 | > 100000 | 537 |
| N#Cc1c2c(c(N3CCN(Cc4ccc(F)cc4)CC3)n3c1nc1ccccc13)CCC2 | 37.7 | > 100000 | 19.8 |
| CCOC(=O)C(=O)N1c2ccc(C)cc2-c2c(ssc2=S)C1(C)C | 37.7 | > 100000 | 46.5 |
| CCOc1ccc(NC(=O)C2c3ccccc3C(=O)N(CC(C)C)C2c2cccs2)cc1 (stereo unspecified) | 36.7 | > 100000 | 78.3 |

| SMILES | EC50 [1] [nM] | CC50 [2] [nM] | EC50 [3] [nM] |
| --- | --- | --- | --- |
| O[Si](CCCN1CCCCC1)(c1ccccc1)C1CCCCC1 (stereo unspecified) | 12.1 | 33000 | 23.6 |
| COc1ccc(C2CC(=O)C3=C(C2)NC(C)=C(C(=O)OC2CCCC2)C3c2ccc(SC)cc2)cc1OC (stereo unspecified) | 36.5 | > 100000 | 249 |
| CCC(C)OC(=O)C1=C(C)NC2=C(C(=O)CC(c3ccc(Cl)cc3)C2)C1c1ccc(Cl)cc1 (stereo unspecified) | 43.8 | > 100000 | 216 |
| CCOC(=O)C1=C(C)NC2=C(C(=O)CC(c3ccc(Cl)cc3)C2)C1c1ccc(F)cc1 (stereo unspecified) | 42.8 | > 100000 | 95 |
| Cc1cc(NC(=O)C2c3ccccc3C(=O)N(CC(C)C)C2c2cccs2)no1 (stereo unspecified) | 45.3 | > 100000 | 85.6 |
| COc1ccc(C2CC(=O)C3=C(C2)NC(C)=C(C(=O)OC2CCCC2)C3c2ccc(F)cc2)cc1 (stereo unspecified) | 41.6 | > 100000 | 98.6 |
| Cc1nc(-c2ccccc2)nc(C(=O)N2CCN(C(=O)NC3CCCCC3)C(C)C2)c1C(=O)OC(C)C (stereo unspecified) | 41.7 | > 100000 | 84.4 |
| O=C(NCCc1nc(-c2ccncc2)n[nH]1)C12CC3CC(CC(C3)C1)C2 | 44.9 | > 100000 | > 12500 |
| c1ccc([B-](c2ccccc2)(c2ccccc2)c2ccccc2)cc1 | 44.8 | > 100000 | 124 |
| CCC(=O)Nc1cc(NC(=O)CSc2nc(C)c(CC)c(O)n2)ccc1C | 1.61 | 3920 | > 1250 |
| CCCOC(=O)C1=C(C)NC2=C(C(=O)CC(c3ccc(OC)c(OC)c3)C2)C1c1ccccc1Cl (stereo unspecified) | 44.8 | > 100000 | 66.2 |
| COc1ccc(C2CC3=NC(C)=C(C(=O)OC(C)C)C(c4ccccc4OC)C3=C(O)C2)cc1OC (stereo unspecified) | 39.8 | > 100000 | 91.9 |
| CC(CCc1ccccc1)NCC(O)c1cccc([N+](=O)[O-])c1 (stereo unspecified) | 14.5 | 42500 | 205 |
| CCOC(=O)C1=C(CC)NC2=C(C(=O)CC(C)(C)C2)C1c1ccc(Br)cc1 (stereo unspecified) | 44.1 | > 100000 | 408 |
| O=[N+]([O-])c1ccc(S(=O)(=O)N2CCN(C(=S)NCc3ccccc3)CC2)cc1 | 38 | > 100000 | 79.6 |
| O=S(=O)(ON=C1CCCc2sc(Cl)cc21)c1ccccc1 | 40.9 | > 100000 | 158 |
| CC1CCC2C(C)C(O)OC3OC4(C)CCC1C32OO4 (stereo unspecified) | 3.31 | > 10000 | 7.05 |
| Cn1c2c([n+](C)c1CCl)C(=O)c1ccccc1C2=O | 3.55 | > 10000 | 3.1 |
| CCCOC(=O)C1=C(C)NC2=C(C(=O)CC(c3ccc(OC)cc3)C2)C1c1cccc(Cl)c1Cl (stereo unspecified) | 30.8 | > 100000 | 233 |
| Oc1ccc(-c2ccc3c(c2)OCO3)cc1CNCC1(N2CCCCC2)CCCCC1 | 35.4 | > 100000 | 291 |
| COc1cccc(-c2ccc(O)c(CNCC3CCCCC3)c2)n1 | 17.7 | 46600 | 58.5 |
| COc1ccc(C2CC(=O)C3=C(C2)NC(C)=C(C(=O)OC(C)C)C3c2ccc([N+](=O)[O-])cc2)cc1OC (stereo unspecified) | 31.8 | > 100000 | 31.9 |
| CCOC(=O)C1=C(C)NC2=C(C(=O)CC(c3ccccc3)C2)C1c1ccccc1Cl (stereo unspecified) | 34.9 | > 100000 | 251 |
| COc1ccc(C2CC(=O)C3=C(C2)NC(C)=C(C(=O)OC(C)C)C3c2ccccc2Br)cc1OC (stereo unspecified) | 7.84 | 23300 | 13.7 |
| CCOC(=O)C1=C(C)NC2=C(C(=O)CC(c3ccc(Cl)cc3)C2)C1c1ccccc1Cl (stereo unspecified) | 40.8 | > 100000 | 44.2 |
| CCCOC(=O)C1=C(C)NC2=C(C(=O)CC(c3ccc(OC)cc3)C2)C1c1cccc(F)c1 (stereo unspecified) | 32.9 | > 100000 | 72.4 |

— ChEMBL document CHEMBL1156829 (Proc Natl Acad Sci U S A, 2008)
